Data published in US20080280862A1, “Methods, compositions, and kits for the treatment of pain” (priority 2007, published 2008).

Legend:
TNFα = TNFα secretion by human white blood cells stimulated with PMA/ionomycin, synergy score; assay type: cell-based; parameters: key: S = Σ Idata(Idata−ILoewe) × ln dilution factors; volume over Loewe additivity; settings: PBMC stimulated with PMA/Ionomycin
Description: A 100 μl suspension of diluted human white blood cells contained within each well of a polystyrene 384-well plate (NalgeNunc) was stimulated to secrete TNFα by treatment with a final concentration of 10 ng/mL phorbol 12-myristate 13-acetate (Sigma, P-1585) and 750 ng/mL ionomycin (Sigma, I-0634). Various concentrations of each test compound were added at the time of stimulation. After 16-18 hours of incubation at 37° C. in a humidified incubator, the plate was centrifuged and the supernatant transferred to a white opaque polystyrene 384-well plate (NalgeNunc, Maxisorb) coated with an anti-TNFα antibody (PharMingen, #551220). After a two-hour incubation, the plate was washed (Tecan PowerWasher 384) with PBS containing 0.1% Tween 20 and incubated for an additional one hour with another anti-TNFα antibody that was biotin labeled (PharMingen, #554511) and HRP coupled to strepavidin (PharMingen, #13047E). After the plate was washed with 0.1% Tween 20/PBS, an HRP-luminescent substrate was added to each well and light intensity measured using a LJL Analyst plate luminometer.
The synergy scores calculated for the various combinations of compounds set forth in Table 3 was calculated by the formula S=log fX log fYΣIdata(Idata−ILoewe), summed over all non-single-agent concentration pairs, and where log fX,Y are the natural logarithm of the dilution factors used for each single agent. This effectively calculates a volume between the measured and Loewe additive response surfaces, weighted towards high inhibition and corrected for varying dilution factors.

[1] = system: acetic acid-induced pain model in mice; test: Acetic acid pain model, writhes; assay type: in vivo, ICR mice
Description: The acetic acid is a reliable fast model for noxious/visceral pain usually used for screening potential drug candidates for their analgesic activity. The effects of test article combinations on pain generation are assayed using the acetic acid-induced pain model in mice. Adult male ICR mice are administered study drugs intraperitoneally (vehicle, TCA, steroid or TCA/Steroid test article combinations) once daily for 2 days (day −2 and day −1) and 30 minutes prior to the acetic acid injection on day 0 (time=0). […] To elicit a pain response, dilute acetic acid (10 ml/kg of 0.6% solution) is injected intraperitoneally into the abdomen. The animal is placed in an observation chamber, and 5 minutes after acetic acid administration, the number of writhes is counted and recorded over a five minute period by a blinded observer. A writhe is considered as a contraction of the abdominal muscles accompanied by an elongation of the body and extension of the hind limb. Results are expressed as number of writhes.

[2] = combination with Hydrocortisone

SMILES	Synergy Score based on TNF-α inhibition (TNFα; combination with Betamethasone)	Synergy Score based on TNF-α inhibition (TNFα; combination with Budesonide)	Synergy Score based on TNF-α inhibition (TNFα; combination with Clobetasol)	Synergy Score based on TNF-α inhibition (TNFα; combination with Dexamethasone)	Synergy Score based on TNF-α inhibition (TNFα; combination with Diflorasone)	Synergy Score based on TNF-α inhibition (TNFα; [2])	Synergy Score based on TNF-α inhibition (TNFα; combination with Prednisolone)	Synergy Score based on TNF-α inhibition (TNFα; combination with Triamcinolone)	Mean # of writhes per 5 minutes ± SEM ([1]; 1 mg/kg ip)	Mean # of writhes per 5 minutes ± SEM ([1]; 3 mg/kg ip)	Mean # of writhes per 5 minutes ± SEM ([1]; 5 mg/kg ip)	Mean # of writhes per 5 minutes ± SEM ([1]; 10 mg/kg ip)	Mean # of writhes per 5 minutes ± SEM ([1]; 15 mg/kg ip)	Mean # of writhes per 5 minutes ± SEM ([1]; 35 mg/kg ip)
CN(C)CCC=C1c2ccccc2CCc2ccccc21 [Amitriptyline]	0.7	0.78	0.75	1.2	0.59	0.78	0.68	0.34	8.71 ± 2.44	11.62 ± 2.94	4.50 ± 2.04	0.79 ± 0.79		
CNCCC=C1c2ccccc2CCc2ccccc21 [Nortriptyline]	0.83	1.6		1.7		0.72	1.1	0.88	11.78 ± 3.44		7.79 ± 3.81	7.57 ± 2.53	2.07 ± 1.42	
C[C@]12C=CC(=O)C=C1CC[C@@H]1[C@@H]2[C@@H](O)C[C@@]2(C)[C@H]1CC[C@]2(O)C(=O)CO [Prednisolone]									8.00 ± 1.70		14.43 ± 2.07	12.29 ± 3.83		11.29 ± 5.22
